Measurements: patent EP1579851A2, “Rapid release encapsulated bioactive agents for inducing or potentiating an immune response and methods of use thereof” (CORIXA CORPORATION, priority 1997, dated 1999)

System: P815 cells
Experiment: In vivo CTL induction by P815-1 formulations (anti-P1A response), 51Cr release cytotoxicity assay
Design: species or system DBA/2 mice
Settings: 30 µg peptide or equivalent, two weeks after a single immunization; restimulated with P815-2 pulsed splenocytes; Fig. 4a
Method: C57BL/6 mice were immunized subcutaneously with 15-30µg of soluble Ova or Ova encapsulated in microspheres (Ova/PLG). In the P1A system, DBA/2 mice were similarly immunized with P815-1 peptide alone or P815-1/PLG. PLG is defined herein as PLG1, which represents the polymeric composition of the single component system, or PLG2a-XX, which represents the polymeric composition of the blend component system. Antigens were suspended in 200 iL of PBS and injected on both flanks of the animal. As controls, mice were immunized with Ova admixed with alum as adjuvant. Fourteen to 21 days after the immunization, splenocytes were prepared as single cell suspensions and ~50'10^6 cells from each mouse were incubated with 2.5'10^6 irradiated (200,000 rad) EG7.Ova cells. […] After five days of culture, CTL activities were measured in a ^51Cr release cytotoxicity assay as described below.
To conduct a CTL assay, target cells were incubated with ^51Cr at 100 ìCi/10^6 cells at 37°C for 60 min. […] After 4 hours of incubation at 37°C, supernatant was collected from test wells using Skatron filter strips and counted on a Packard Cobra II a counter. Specific lysis was calculated as: % specific lysis =(Experimental release - Spontaneous release)/(Maximum release - Spontaneous release)X 100 [formula] […]

Q: How did the “CTL activity of splenocytes against P815 cells” value turn out when “KKKRYSLEEILPYLGWLVFAWTTSKKK [soluble P815-1 peptide, 28 amino acid peptide, residues 28-49 of the P1A antigen with 3 lysine residues added to both termini]” was run?
A: The value was “Minimal CTL priming”.
